Read-outs that look alike come from different tables or passages of the source.
Legend:
Assay in all cases: DiscoverX KINOMEscan kinase profiling (468 assays)
Type in all cases: binding
human kinome [1] = biological target: human kinome (Homo sapiens, UniProt O75747); details: read-out: Percent Control
In short: (§1)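 DNA-tagged kinases competed for immobilized biotinylated ligands on streptavidin magnetic beads, with bound kinase quantified by qPCR. VIP152 in DMSO was tested against a DMSO control.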

human kinome [2] = biological target: human kinome (Homo sapiens, UniProt O95819); details: MAP4K4; 100 nM; read-out: Percent Control
In short: as §1

human kinome [3] = biological target: human kinome (Homo sapiens, UniProt P00533, T790M); details: EGFR(T790M); 100 nM; read-out: Percent Control
In short: as §1

human kinome [4] = biological target: human kinome (Homo sapiens, UniProt P0C1S8); details: kinase WEE2 (Entrez WEE2); compound concentration 1000 nM; read-out: Percent Control
In short: as §1

human kinome [5] = biological target: human kinome (Homo sapiens, UniProt P21709); details: EPHA1; 100 nM; read-out: Percent Control
In short: as §1

human kinome [6] = biological target: human kinome (Homo sapiens, UniProt P23443); details: kinase S6K1 (Entrez RPS6KB1); compound concentration 1000 nM; read-out: Percent Control
In short: as §1

human kinome [7] = biological target: human kinome (Homo sapiens, UniProt P31152); details: ERK4 (Entrez MAPK4); 100 nM; read-out: Percent Control
In short: as §1

human kinome [8] = biological target: human kinome (Homo sapiens, UniProt P36888, D835H); details: FLT3(D835H); 100 nM; read-out: Percent Control
In short: as §1

human kinome [9] = biological target: human kinome (Homo sapiens, UniProt P37023); details: ACVRL1; 100 nM; read-out: Percent Control
In short: as §1

human kinome [10] = biological target: human kinome (Homo sapiens, UniProt P41743); details: read-out: Percent Control
In short: as §1

human kinome [11] = biological target: human kinome (Homo sapiens, UniProt P42345); details: MTOR; 100 nM; read-out: Percent Control
In short: as §1

human kinome [12] = biological target: human kinome (Homo sapiens, UniProt P49759); details: CLK1; 100 nM; read-out: Percent Control
In short: as §1

human kinome [13] = biological target: human kinome (Homo sapiens, UniProt P49841); details: GSK3B; 100 nM; read-out: Percent Control
In short: as §1

human kinome [14] = biological target: human kinome (Homo sapiens, UniProt P78356); details: read-out: Percent Control
In short: as §1

human kinome [15] = biological target: human kinome (Homo sapiens, UniProt Q02156); details: read-out: Percent Control
In short: as §1

human kinome [16] = biological target: human kinome (Homo sapiens, UniProt Q04759); details: read-out: Percent Control
In short: as §1

human kinome [17] = biological target: human kinome (Homo sapiens, UniProt Q13153); details: read-out: Percent Control
In short: as §1

human kinome [18] = biological target: human kinome (Homo sapiens, UniProt Q13557); details: CAMK2D; 100 nM; read-out: Percent Control
In short: as §1

human kinome [19] = biological target: human kinome (Homo sapiens, UniProt Q14680); details: MELK; 100 nM; read-out: Percent Control
In short: as §1

human kinome [20] = biological target: human kinome (Homo sapiens, UniProt Q15418); details: compound concentration 1000 nM, read-out: Percent Control
In short: as §1

human kinome [21] = biological target: human kinome (Homo sapiens, UniProt Q96PY6); details: read-out: Percent Control
In short: as §1

human kinome [22] = biological target: human kinome (Homo sapiens, UniProt Q9BRS2); details: kinase RIOK1 (Entrez RIOK1); compound concentration 1000 nM; read-out: Percent Control
In short: as §1

human kinome [23] = biological target: human kinome (Homo sapiens, UniProt Q9H422); details: HIPK3; 100 nM; read-out: Percent Control
In short: as §1

human kinome [24] = biological target: human kinome (Homo sapiens, UniProt Q9H4B4); details: read-out: Percent Control
In short: as §1

human kinome [25] = biological target: human kinome (Homo sapiens, UniProt Q9NQU5); details: read-out: Percent Control
In short: as §1

human kinome [26] = biological target: human kinome (Homo sapiens, UniProt Q9NYL2); details: kinase ZAK (Entrez ZAK); compound concentration 1000 nM; read-out: Percent Control
In short: as §1

human kinome [27] = biological target: human kinome (Homo sapiens, UniProt Q9P2K8, S808G); details: GCN2(Kin.Dom.2,S808G) (Entrez EIF2AK4); 100 nM; read-out: Percent Control
In short: as §1

human kinome [28] = biological target: human kinome (Homo sapiens, UniProt Q9Y463); details: DYRK1B; 100 nM; read-out: Percent Control
In short: as §1

human kinome [29] = biological target: human kinome (Homo sapiens, UniProt Q9Y4K4); details: MAP4K5; 100 nM; read-out: Percent Control
In short: as §1

Chain of human kinome (Homo sapiens, UniProt P78356) (P78356 whole entry): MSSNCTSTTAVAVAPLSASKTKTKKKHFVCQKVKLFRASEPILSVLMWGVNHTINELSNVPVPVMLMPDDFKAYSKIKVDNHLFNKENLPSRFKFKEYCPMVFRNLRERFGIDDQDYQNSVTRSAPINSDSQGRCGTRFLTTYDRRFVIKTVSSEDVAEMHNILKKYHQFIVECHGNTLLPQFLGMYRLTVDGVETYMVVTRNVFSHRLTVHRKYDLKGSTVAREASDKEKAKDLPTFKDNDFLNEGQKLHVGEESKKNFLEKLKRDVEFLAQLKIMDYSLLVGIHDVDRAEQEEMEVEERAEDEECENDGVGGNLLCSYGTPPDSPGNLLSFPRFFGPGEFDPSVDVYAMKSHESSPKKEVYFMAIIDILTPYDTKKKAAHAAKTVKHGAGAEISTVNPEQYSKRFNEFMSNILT
Chain of human kinome (Homo sapiens, UniProt Q9NQU5) (Q9NQU5 whole entry): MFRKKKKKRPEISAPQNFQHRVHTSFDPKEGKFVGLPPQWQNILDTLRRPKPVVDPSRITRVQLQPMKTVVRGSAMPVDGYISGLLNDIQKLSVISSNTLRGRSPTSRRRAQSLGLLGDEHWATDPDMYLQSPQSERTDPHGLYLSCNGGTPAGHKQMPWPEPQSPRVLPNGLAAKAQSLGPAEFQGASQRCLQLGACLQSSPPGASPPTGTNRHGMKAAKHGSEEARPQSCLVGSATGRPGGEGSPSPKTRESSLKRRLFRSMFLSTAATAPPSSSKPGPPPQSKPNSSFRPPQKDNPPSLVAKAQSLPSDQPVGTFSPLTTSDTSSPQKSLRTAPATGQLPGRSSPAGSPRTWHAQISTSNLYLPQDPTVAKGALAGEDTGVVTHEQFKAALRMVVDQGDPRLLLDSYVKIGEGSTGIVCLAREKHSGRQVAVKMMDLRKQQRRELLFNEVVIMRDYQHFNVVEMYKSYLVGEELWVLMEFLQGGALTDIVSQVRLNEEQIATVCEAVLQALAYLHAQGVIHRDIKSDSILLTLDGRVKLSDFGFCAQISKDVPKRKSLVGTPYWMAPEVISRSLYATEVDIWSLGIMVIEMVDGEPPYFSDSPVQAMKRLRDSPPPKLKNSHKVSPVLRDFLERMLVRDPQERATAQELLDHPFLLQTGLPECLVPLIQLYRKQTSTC
Chain of human kinome (Homo sapiens, UniProt Q13153) (Q13153 whole entry): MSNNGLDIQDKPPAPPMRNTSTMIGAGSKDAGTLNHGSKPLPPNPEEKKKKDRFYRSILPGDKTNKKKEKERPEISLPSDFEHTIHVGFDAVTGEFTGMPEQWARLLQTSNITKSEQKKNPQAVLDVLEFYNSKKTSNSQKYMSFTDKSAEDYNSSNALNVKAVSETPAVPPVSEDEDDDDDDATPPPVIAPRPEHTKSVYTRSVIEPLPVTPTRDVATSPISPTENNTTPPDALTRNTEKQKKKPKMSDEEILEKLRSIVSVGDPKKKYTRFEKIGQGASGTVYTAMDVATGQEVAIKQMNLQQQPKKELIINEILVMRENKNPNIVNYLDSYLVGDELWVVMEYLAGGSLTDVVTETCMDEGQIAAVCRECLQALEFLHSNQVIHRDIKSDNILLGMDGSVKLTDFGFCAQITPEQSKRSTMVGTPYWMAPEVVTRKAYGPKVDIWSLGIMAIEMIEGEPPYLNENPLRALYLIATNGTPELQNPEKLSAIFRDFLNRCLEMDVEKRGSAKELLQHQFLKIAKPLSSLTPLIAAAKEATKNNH
Chain of human kinome (Homo sapiens, UniProt P41743) (P41743 whole entry): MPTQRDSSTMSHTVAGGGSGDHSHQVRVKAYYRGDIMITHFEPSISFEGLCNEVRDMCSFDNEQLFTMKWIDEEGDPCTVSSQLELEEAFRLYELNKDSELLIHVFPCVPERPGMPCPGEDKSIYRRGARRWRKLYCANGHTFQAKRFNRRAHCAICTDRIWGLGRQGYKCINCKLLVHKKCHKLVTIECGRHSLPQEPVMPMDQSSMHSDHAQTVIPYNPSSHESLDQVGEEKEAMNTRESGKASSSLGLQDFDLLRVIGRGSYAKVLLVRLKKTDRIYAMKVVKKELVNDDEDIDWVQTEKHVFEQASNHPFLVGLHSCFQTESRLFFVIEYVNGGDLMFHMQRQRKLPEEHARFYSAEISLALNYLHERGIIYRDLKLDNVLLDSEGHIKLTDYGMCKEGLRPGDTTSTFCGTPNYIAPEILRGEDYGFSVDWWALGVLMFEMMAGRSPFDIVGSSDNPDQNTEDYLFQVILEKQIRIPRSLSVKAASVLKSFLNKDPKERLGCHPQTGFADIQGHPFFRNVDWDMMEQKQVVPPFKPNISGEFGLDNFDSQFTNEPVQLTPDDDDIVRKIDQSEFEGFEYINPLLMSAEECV
Chain of human kinome (Homo sapiens, UniProt Q04759) (Q04759 whole entry): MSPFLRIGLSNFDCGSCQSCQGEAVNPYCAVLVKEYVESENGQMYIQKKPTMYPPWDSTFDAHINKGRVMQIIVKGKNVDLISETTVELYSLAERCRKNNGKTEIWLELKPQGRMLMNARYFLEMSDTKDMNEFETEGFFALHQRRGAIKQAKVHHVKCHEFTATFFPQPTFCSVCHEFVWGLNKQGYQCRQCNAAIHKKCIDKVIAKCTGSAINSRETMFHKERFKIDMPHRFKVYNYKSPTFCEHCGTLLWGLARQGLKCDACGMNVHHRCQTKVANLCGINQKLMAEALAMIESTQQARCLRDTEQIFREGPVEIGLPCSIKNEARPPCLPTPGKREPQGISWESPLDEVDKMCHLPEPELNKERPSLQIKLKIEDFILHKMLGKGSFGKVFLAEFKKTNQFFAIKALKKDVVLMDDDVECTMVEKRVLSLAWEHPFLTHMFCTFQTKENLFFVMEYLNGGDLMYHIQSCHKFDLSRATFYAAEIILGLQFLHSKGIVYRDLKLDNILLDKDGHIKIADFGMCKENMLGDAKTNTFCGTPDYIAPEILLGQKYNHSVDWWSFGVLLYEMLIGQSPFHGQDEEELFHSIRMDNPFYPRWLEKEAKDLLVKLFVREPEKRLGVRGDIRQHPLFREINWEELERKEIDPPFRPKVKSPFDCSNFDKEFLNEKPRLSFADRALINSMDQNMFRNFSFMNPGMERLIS
Chain of human kinome (Homo sapiens, UniProt O75747) (O75747 whole entry): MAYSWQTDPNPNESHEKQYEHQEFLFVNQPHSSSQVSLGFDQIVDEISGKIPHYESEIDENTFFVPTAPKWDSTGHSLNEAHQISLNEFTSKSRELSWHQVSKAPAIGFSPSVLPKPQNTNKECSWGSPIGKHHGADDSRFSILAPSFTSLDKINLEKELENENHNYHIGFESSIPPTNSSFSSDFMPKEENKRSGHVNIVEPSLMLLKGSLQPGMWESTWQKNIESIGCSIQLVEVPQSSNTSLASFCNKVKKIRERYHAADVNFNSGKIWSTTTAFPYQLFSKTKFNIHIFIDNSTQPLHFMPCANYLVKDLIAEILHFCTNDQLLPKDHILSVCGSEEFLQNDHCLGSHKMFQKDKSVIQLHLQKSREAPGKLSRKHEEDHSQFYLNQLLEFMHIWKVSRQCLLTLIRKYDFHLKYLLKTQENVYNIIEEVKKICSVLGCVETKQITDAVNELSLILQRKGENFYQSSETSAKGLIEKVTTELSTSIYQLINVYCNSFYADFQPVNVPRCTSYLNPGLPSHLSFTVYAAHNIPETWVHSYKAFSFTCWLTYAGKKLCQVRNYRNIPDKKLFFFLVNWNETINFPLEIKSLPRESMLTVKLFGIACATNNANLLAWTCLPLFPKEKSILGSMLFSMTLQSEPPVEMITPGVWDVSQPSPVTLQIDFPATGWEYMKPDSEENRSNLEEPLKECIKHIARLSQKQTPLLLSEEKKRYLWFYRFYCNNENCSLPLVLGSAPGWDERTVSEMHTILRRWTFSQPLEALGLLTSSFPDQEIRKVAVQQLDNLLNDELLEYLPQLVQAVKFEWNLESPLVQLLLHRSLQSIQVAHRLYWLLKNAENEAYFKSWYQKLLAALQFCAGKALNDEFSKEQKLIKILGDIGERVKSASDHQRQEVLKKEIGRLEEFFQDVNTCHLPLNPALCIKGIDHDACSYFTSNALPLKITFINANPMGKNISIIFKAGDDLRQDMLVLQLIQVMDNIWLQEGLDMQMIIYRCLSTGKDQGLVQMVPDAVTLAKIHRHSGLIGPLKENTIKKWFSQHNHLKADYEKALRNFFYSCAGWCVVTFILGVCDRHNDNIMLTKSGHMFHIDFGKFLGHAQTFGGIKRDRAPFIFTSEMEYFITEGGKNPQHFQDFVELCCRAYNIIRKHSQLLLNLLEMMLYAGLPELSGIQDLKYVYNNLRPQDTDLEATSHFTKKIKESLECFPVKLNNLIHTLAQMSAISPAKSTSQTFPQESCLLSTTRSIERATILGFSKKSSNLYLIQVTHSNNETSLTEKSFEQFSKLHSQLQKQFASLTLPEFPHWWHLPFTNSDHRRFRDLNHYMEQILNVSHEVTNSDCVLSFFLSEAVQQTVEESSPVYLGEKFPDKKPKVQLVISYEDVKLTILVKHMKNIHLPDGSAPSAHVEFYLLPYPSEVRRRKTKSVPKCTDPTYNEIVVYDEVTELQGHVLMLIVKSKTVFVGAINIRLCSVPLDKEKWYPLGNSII
Chain of human kinome (Homo sapiens, UniProt Q9H4B4) (Q9H4B4 whole entry): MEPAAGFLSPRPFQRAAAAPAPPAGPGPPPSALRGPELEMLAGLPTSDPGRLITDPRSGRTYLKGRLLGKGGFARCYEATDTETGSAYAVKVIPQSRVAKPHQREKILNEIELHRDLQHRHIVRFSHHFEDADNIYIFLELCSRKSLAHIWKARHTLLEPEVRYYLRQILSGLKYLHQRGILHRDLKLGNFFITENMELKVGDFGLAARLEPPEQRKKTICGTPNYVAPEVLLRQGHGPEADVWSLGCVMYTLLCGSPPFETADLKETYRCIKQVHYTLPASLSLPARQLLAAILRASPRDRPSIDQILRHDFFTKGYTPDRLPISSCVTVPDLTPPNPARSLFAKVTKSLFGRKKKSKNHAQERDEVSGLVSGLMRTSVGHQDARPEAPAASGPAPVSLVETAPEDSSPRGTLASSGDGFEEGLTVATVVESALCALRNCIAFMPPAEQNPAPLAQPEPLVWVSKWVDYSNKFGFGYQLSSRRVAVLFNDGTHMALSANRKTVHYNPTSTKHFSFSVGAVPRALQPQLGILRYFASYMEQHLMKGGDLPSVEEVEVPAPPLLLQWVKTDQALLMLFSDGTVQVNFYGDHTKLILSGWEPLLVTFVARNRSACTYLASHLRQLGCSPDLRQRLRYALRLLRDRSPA

COc1cc(F)ccc1-c1cc(Nc2cc(CS(C)(=N)=O)ccn2)ncc1F (stereo not drawn) [VIP152]
remaining binding at 0.1 µM (human kinome [1]; PIK3C2G, 100 nM): 100%
remaining binding at 1 µM (human kinome [1]; kinase PIK3C2G (Entrez PIK3C2G), compound concentration 1000 nM): 94%
remaining binding at 0.1 µM (human kinome [2]): 73%
remaining binding at 0.1 µM (human kinome [3]): 100%
remaining binding at 1 µM (human kinome [4]): 89%
remaining binding at 0.1 µM (human kinome [5]): 100%
remaining binding at 1 µM (human kinome [6]): 100%
remaining binding at 0.1 µM (human kinome [7]): 100%
remaining binding at 0.1 µM (human kinome [8]): 100%
remaining binding at 0.1 µM (human kinome [9]): 77%
remaining binding at 0.1 µM (human kinome [10]; PRKCI, 100 nM): 90%
remaining binding at 1 µM (human kinome [10]; kinase PRKCI (Entrez PRKCI), compound concentration 1000 nM): 96%
remaining binding at 0.1 µM (human kinome [11]): 59%
remaining binding at 0.1 µM (human kinome [12]): 92%
remaining binding at 0.1 µM (human kinome [13]): 72%
remaining binding at 0.1 µM (human kinome [14]; PIP5K2B (Entrez PIP4K2B), 100 nM): 100%
remaining binding at 1 µM (human kinome [14]; kinase PIP5K2B (Entrez PIP4K2B), compound concentration 1000 nM): 100%
remaining binding at 0.1 µM (human kinome [15]; PRKCE, 100 nM): 58%
remaining binding at 1 µM (human kinome [15]; kinase PRKCE (Entrez PRKCE), compound concentration 1000 nM): 99%
remaining binding at 0.1 µM (human kinome [16]; PRKCQ, 100 nM): 100%
remaining binding at 1 µM (human kinome [16]; kinase PRKCQ (Entrez PRKCQ), compound concentration 1000 nM): 62%
remaining binding at 0.1 µM (human kinome [17]; PAK1, 100 nM): 100%
remaining binding at 1 µM (human kinome [17]; kinase PAK1 (Entrez PAK1), compound concentration 1000 nM): 100%
remaining binding at 0.1 µM (human kinome [18]): 100%
remaining binding at 0.1 µM (human kinome [19]): 91%
remaining binding at 1 µM (human kinome [20]; kinase RSK1(Kin.Dom.1-N-terminal) (Entrez RPS6KA1)): 95%
remaining binding at 1 µM (human kinome [20]; kinase RSK1(Kin.Dom.2-C-terminal) (Entrez RPS6KA1)): 89%
remaining binding at 0.1 µM (human kinome [21]; NEK1, 100 nM): 100%
remaining binding at 1 µM (human kinome [21]; kinase NEK1 (Entrez NEK1), compound concentration 1000 nM): 99%
remaining binding at 1 µM (human kinome [22]): 79%
remaining binding at 0.1 µM (human kinome [23]): 100%
remaining binding at 0.1 µM (human kinome [24]; PLK3, 100 nM): 91%
remaining binding at 1 µM (human kinome [24]; kinase PLK3 (Entrez PLK3), compound concentration 1000 nM): 92%
remaining binding at 0.1 µM (human kinome [25]; PAK6, 100 nM): 100%
remaining binding at 1 µM (human kinome [25]; kinase PAK6 (Entrez PAK6), compound concentration 1000 nM): 91%
remaining binding at 1 µM (human kinome [26]): 79%
remaining binding at 0.1 µM (human kinome [27]): 96%
remaining binding at 0.1 µM (human kinome [28]): 100%
remaining binding at 0.1 µM (human kinome [29]): 94%

Reference: PMC9898036, “VIP152 is a selective CDK9 inhibitor with pre-clinical in vitro and in vivo efficacy in chronic lymphocytic leukemia” (Leukemia, 2022)
